The results in this text go back to patent publication US20250387369A1 (priority 2022, published 2025).

Assay [1] has as its system type A influenza virus (H1N1 subtype). Briefly: microbe, parasite or virus in culture. The format is cell-based. The settings on record: H1N1, Calu-3, 48 h.
The subject of assay [2] is Ebola virus-derived trVLP. Briefly: microbe, parasite or virus in culture. The format is cell-based. The settings on record: Zaire ebolavirus, Huh-7, 48 h.

`NC(=O)c1nc(F)c[nH]c1=O` [Favipiravir] registered an IC50 in assay [1] of 9.5 µM.

In turn, `CCC(CC)COC(=O)[C@H](C)N[P@](=O)(OC[C@H]1O[C@@](C#N)(c2ccc3c(N)ncnn23)[C@H](O)[C@@H]1O)Oc1ccccc1` [Remdesivir] gave an IC50 in assay [2] of 100 nM.
